Tests used:
[1] = Activation of voltage-sensitive sodium channel in mouse neuro2a cells; type: cell-based; conditions: N2a
[2] = Ichthyotoxicity in Carassius auratus; type: organism-based; conditions: in vivo

For `C=C1CC(=O)N[C@@H](C)C(=O)N(C)[C@@H](C(C)C)C(=O)NCC(=O)O[C@@H](/C(C)=C/C(C)=C/C(C)(C)C)[C@@H]1C` [ANTILLATOXIN], the EC50 [1] was 180 nM.
In the case of `C=C1CC(=O)N[C@@H](C)C(=O)N(C)[C@@H](CCc2ccccc2)C(=O)NCC(=O)O[C@@H](/C(C)=C/C(C)=C/C(C)(C)C)[C@@H]1C` [ANTILLATOXIN B], the LC50 [2] is reported as 1000 nM and the EC50 [1] is reported as 1770 nM.

Source: ChEMBL document CHEMBL1155737, “Antillatoxin B, a neurotoxic lipopeptide from the marine cyanobacterium Lyngbya majuscula” (J Nat Prod, 2001)
